As usually defined, the EC50 is the concentration giving half of the maximal effect.

Read-outs that look alike come from different tables or passages of the source.

In experiment [1] the target is T1, TLR7 (Homo sapiens, UniProt Q9NYK1).
T1 construct: lymphocytes, monocytes and dendritic cells that express TLR7, TLR8 and TLR9; endogenous in cells; host or cells: cryopreserved human PBMCs from healthy donors
T1 sequence (Q9NYK1 27-1049): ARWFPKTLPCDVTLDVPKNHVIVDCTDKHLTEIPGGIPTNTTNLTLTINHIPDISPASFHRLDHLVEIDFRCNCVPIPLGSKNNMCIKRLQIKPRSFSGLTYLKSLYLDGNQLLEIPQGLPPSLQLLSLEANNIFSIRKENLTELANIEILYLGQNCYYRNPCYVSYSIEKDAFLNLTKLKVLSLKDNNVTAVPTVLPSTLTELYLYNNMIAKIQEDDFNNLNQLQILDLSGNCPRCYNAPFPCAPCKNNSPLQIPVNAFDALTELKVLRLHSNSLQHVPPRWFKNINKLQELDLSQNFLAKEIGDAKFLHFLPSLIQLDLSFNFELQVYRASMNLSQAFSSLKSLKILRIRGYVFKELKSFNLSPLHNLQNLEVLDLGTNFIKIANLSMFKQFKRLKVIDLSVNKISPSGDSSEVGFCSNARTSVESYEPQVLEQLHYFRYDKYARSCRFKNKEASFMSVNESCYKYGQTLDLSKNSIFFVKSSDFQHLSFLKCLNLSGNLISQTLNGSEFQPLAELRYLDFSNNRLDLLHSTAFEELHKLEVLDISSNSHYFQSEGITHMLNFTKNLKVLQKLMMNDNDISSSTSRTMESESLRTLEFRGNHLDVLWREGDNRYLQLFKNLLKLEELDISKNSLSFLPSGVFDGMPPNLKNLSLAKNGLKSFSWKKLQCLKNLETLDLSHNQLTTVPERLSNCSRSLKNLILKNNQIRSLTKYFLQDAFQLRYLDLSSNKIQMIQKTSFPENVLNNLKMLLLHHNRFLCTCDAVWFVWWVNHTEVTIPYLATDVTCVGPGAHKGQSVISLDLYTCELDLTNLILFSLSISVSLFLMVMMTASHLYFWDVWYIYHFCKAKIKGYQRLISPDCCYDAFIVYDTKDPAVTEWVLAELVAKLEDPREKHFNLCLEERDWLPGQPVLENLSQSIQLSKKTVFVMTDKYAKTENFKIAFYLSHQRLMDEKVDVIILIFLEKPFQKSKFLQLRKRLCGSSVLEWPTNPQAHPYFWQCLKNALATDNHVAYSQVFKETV
Kind of experiment: Human PBMC cell-based assay, TLR7 agonist stimulation. The conditions noted are these: human PBMCs, read-out: TLR-7 EC50. From the text:
(§1) Human Peripheral Blood Mononuclear Cell (PBMC) Cell-Based Assay
(§2) Human peripheral blood mononuclear cells (PBMCs) consist of lymphocytes, monocytes and dendritic cells that express TLR7, TLR8 and TLR9. These cells respond to TLR7, TLR8 and TLR9 ligand stimulation and produce cytokines and chemokines in vitro and in vivo. Human PBMCs are therefore suitable to be used in a cell-based assay to assess the in vitro potency of a TLR 7, 8, and/or 9 antagonist. The result is expected to be more translatable to the pharmacodynamics response in vivo than cell line-based assays.
(§3) Cryopreserved human PBMCs from healthy donors were thawed and resuspended in RPMI-1640 media with L-glutamine (Corning) supplemented with 10% Fetal Bovine Serum (Hyclone) and 1× Penicillin-Streptomycin (Corning). After counting, the cell density was adjusted to 2 million cells/ml and incubated for 1 hour at 37° C., 5% CO2 for recovery. Following the recovery, the cells were plated by adding 50p per well (100,000 cells) to 384-well cell culture plates (Greiner) containing 250 nl of test antagonists in 100% DMSO per well, in a 10 points dose response in quadruplicates. PBMCs were incubated in the presence of test antagonists for one hour at 37° C., 5% CO2 before being stimulated with a TLR7 or TLR9 agonist. GS-986 (Gilead Sciences) was used as the TLR7 agonist at a final concentration of 400 nM. ODN-2216 (InvivoGen) was used as the TLR9 agonist at a final concentration of 3μM. PBMCs were incubated in the presence of the test antagonist and the TLR7 (or TLR9) agonist for an additional 6 hours at 37° C., 5% CO2. At the end of the incubation, the cell culture plates were centrifuged at 500 g for 5 min, and the cell culture supernatant was collected. The level of cytokines (IL-6 and IFNα) in the supernatant was measured by electrochemiluminescence immunoassays (Mesoscale Discovery) following manufacturer's recommended protocols. The level of cytokine measured was plotted against the test antagonist concentration and fitted to a sigmoidal function to determine the EC50, which are shown below in Table 2.

Experiment [2] has as its target T2, TLR9 (Homo sapiens, UniProt Q9NR96).
T2 construct: lymphocytes, monocytes and dendritic cells that express TLR7, TLR8 and TLR9; endogenous in cells; host or cells: cryopreserved human PBMCs from healthy donors
T2 sequence (Q9NR96 26-1032): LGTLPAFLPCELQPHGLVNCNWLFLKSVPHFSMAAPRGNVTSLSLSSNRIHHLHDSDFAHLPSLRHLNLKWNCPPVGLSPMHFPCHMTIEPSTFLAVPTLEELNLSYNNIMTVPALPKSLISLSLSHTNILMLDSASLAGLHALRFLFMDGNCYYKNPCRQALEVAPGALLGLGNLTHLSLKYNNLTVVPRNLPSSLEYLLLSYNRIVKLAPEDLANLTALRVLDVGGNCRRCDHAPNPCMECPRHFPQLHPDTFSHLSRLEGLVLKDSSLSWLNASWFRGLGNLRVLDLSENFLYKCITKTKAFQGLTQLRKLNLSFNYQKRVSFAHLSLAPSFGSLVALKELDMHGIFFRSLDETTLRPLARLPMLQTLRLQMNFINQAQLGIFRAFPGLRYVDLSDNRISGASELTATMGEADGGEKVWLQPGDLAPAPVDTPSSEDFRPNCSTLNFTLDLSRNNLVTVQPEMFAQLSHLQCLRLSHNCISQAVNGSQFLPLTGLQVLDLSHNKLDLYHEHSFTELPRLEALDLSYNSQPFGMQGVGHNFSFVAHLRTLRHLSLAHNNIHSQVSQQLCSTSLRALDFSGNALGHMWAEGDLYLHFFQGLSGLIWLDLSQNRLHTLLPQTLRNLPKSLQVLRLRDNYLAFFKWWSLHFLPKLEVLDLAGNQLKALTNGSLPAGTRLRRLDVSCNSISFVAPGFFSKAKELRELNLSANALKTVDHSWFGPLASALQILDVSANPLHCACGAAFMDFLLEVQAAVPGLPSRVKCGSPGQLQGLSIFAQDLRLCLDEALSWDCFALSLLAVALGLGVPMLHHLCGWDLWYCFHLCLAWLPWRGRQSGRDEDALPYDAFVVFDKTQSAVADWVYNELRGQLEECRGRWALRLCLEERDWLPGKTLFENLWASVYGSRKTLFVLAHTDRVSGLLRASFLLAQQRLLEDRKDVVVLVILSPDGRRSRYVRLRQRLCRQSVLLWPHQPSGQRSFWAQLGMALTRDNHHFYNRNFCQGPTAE
Kind of experiment: Human PBMC cell-based assay, TLR9 agonist stimulation. Particulars: human PBMCs, read-out: TLR-9 EC50.
Excerpt: as §1, §2, §3

[3] abbreviates: same protocol as Example A, Table 3 comparison.
Where [4] appears, read: TLR7 agonist GS-986 400 nM, 6 hours, cytokines (IL-6 and IFNα) in supernatant, Table 2.
Where [5] appears, read: TLR9 agonist ODN-2216 3 μM, 6 hours, cytokines (IL-6 and IFNα) in supernatant, Table 2.

As to `Cc1cc(-c2[nH]c3ccc(-c4ccc(N5CCNCC5)nc4)cc3c2C(C)C)cn2ncnc12` [Example B, reference compound], the 50% effective concentration (EC50) in experiment [1] (setting [3]) worked out at 0.5 nM; in experiment [2] (setting [3]) it was 716 nM.

As to `CCc1c(-c2ccc(N3CCNCC3)nc2)[nH]c2cc(-c3cc(C)c4ncnn4c3)ccc12` [Example 23], the EC50 in experiment [1] (setting [4]) is 0.5 nM; in experiment [2] (setting [5]), 305 nM.

As for `Cc1cc(-c2ccc3c(C)c(-c4ccc(N5CCNCC5)nc4)[nH]c3c2)cc(C)n1` [Example 2, 6-(2,6-dimethylpyridin-4-yl)-3-methyl-2-(6-(piperazin-1-yl)pyridin-3-yl)-1H-indole], the EC50 in experiment [1] (setting [4]) came out at 6.8 nM; in experiment [2] (setting [5]), 33.2 nM.

For `Cc1cc(-c2[nH]c3ccc(-c4ccc(N5CCNCC5)nc4)cc3c2C(C)C)cc(C)n1` [Example A, reference compound], the concentration giving a half-maximal response (EC50) in experiment [1] (setting [3]) amounted to 3.9 nM; in experiment [2] (setting [3]), 263 nM.

`Cc1c(-c2ccc(N3CCNCC3)nc2)[nH]c2cc(-c3cc(C)c4ncnn4c3)ccc12` [Example 4]: the EC50 came out at 1.4 nM in experiment [1] (setting [4]) and 322 nM in experiment [2] (setting [5]).

For `Cc1c(-c2ccc(N3CCNCC3)nc2)[nH]c2cc(-c3ccc(C#N)c4ncccc34)ccc12` [Example 7], the results for the EC50 in experiment [1] (setting [4]) and in experiment [2] (setting [5]) were 0.5 nM and 508 nM, respectively.

`Cc1cc(-c2ccc3c(C)c(-c4cnc(N5CCNCC5)nc4)[nH]c3c2)cc(C)n1` [Example 1, 6-(2,6-dimethylpyridin-4-yl)-3-methyl-2-(2-(piperazin-1-yl)pyrimidin-5-yl)-1H-indole]: the EC50 was 7.3 nM in experiment [1] (setting [4]) and 34.6 nM in experiment [2] (setting [5]).

Values taken from patent US20240059673A1, “SUBSTITUTED INDOLE COMPOUNDS” (Gilead Sciences, Inc., priority 2020, published 2024).
